In patent US5118392A, “Separation of trichloroethylene from a butyl alcohol by extractive distillation” (priority 1991, dated 1992):

Tests used:
Format in all cases: physicochemical
[1] = Vapor-liquid equilibrium still, trichloroethylene-2-butanol azeotrope with extractive distillation agent
Description: (§1) The data in Tables 2, 3, 5, 7, 8, 10 and 11 was obtained in a vapor-liquid equilibrium still. In every case, the starting mixture was the trichloroethylene-butanol azeotrope. The relative volatilities are listed for each of the agents.
Seventy grams of the trichloroethylene-2-butanol azeotrope and 30 grams of 2-methyl-1-pentanol were charged to the vapor-liquid equilibrium still and refluxed for two hours.

[2] = Vapor-liquid equilibrium still, trichloroethylene-isobutanol azeotrope with extractive distillation agent; settings: trichloroethylene from isobutanol, Table 5
Description: as §1
Seventy grams of the trichloroethylene-isobutanol azeotrope and 30 grams of n-octanol were charged to the vapor-liquid equilibrium still and refluxed for five hours.

[3] = Glass perforated plate rectification column (7.3 theoretical plates), trichloroethylene / 2-butanol
Description: The overhead analysis was 98.2% trichloroethylene, 1.8% 2-butanol and the bottoms analysis was 65.6% trichloroethylene, 34.4% 2-butanol. This gives an average relative volatility of 1.59 for each theoretical plate.

[4] = Vapor-liquid equilibrium still, trichloroethylene-n-butanol azeotrope with extractive distillation agent
[5] = Glass perforated plate rectification column (7.3 theoretical plates), trichloroethylene / n-butanol; settings: 1 hr
[6] = as above; settings: 2 hrs
Description: Dimethylsulfoxide gave a relative volatility of 1.28 after two hours of operation.
A solution comprising 300 grams of trichloroethylene and 15 grams of n-butanol was placed in the stillpot of a 7.3 theoretical plate glass perforated plate rectification column. […] After two hours operation, overhead and bottoms samples were collected and analysed. The overhead analysis was 98.2% trichloroethylene, 1.8% n-butanol and the bottoms analysis was 90.1% trichloroethylene, 9.9% n-butanol. This gives an average relative volatility of 1.28 for each theoretical plate.

[7] = Example 1, refluxed seven hours

Structure (SMILES): CCCC(C)CO (stereo not drawn) [2-Methyl-1-pentanol]
- liquid composition, 2-butanol ([1]; Example 5, refluxed two hours): 19.5%
- liquid composition, trichloroethylene ([1]; Example 5, refluxed two hours): 80.5%
- vapor composition, 2-butanol ([1]; Example 5, refluxed two hours): 11.9%
- vapor composition, trichloroethylene ([1]; Example 5, refluxed two hours): 88.1%
- Relative Volatility ([1]; Example 5: 70 g azeotrope, 30 g agent, refluxed two hours): 1.75
- Relative Volatility ([1]; trichloroethylene from 2-butanol, Table 7): 1.6
- Relative Volatility [2]: 2.2
- Relative Volatility (per theoretical plate) ([3]; 1 hr): 1.49
- Relative Volatility (average, per theoretical plate) ([3]; 2 hrs): 1.59
- Weight % 2-Butanol ([3]; bottoms, 1 hr): 30.7%
- Weight % C2 H Cl3 ([3]; bottoms, 1 hr): 69.3%
- Weight % 2-Butanol ([3]; bottoms, 2 hrs): 34.4%
- Weight % C2 H Cl3 ([3]; bottoms, 2 hrs): 65.6%
- Weight % 2-Butanol ([3]; overhead, 1 hr): 2.4%
- Weight % C2 H Cl3 ([3]; overhead, 1 hr): 97.6%
- Weight % 2-Butanol ([3]; overhead, 2 hrs): 1.8%
- Weight % C2 H Cl3 ([3]; overhead, 2 hrs): 98.2%

Structure (SMILES): C[S+](C)[O-] [Dimethylsulfoxide]
- liquid composition, n-butanol [4, 7]: 2.9%
- liquid composition, trichloroethylene [4, 7]: 97.1%
- vapor composition, n-butanol [4, 7]: 2.3%
- vapor composition, trichloroethylene [4, 7]: 97.7%
- Relative Volatility ([4]; Example 1: 60 g azeotrope, 30 g agent, refluxed seven hours): 1.25
- Relative Volatility ([4]; trichloroethylene from n-butanol, Table 2): 1.3
- Relative Volatility (per theoretical plate) [5]: 1.22
- Weight % C2 H Cl3 ([5]; bottoms): 88.2%
- Weight % n-Butanol ([5]; bottoms): 11.8%
- Weight % C2 H Cl3 ([5]; overhead): 96.9%
- Weight % n-Butanol ([5]; overhead): 3.1%
- Relative Volatility (average, per theoretical plate) [6]: 1.28
- Weight % C2 H Cl3 ([6]; bottoms): 90.1%
- Weight % n-Butanol ([6]; bottoms): 9.9%
- Weight % C2 H Cl3 ([6]; overhead): 98.2%
- Weight % n-Butanol ([6]; overhead): 1.8%
